Experimental findings from patent publication US11707448B2, “Combination therapies for the treatment of cancer” (Eisai R&D Management Co., Ltd., priority 2014, dated 2023) are described below.

Common to all, as to type: in vivo, mice
One experiment concerns 4T1-luc2 tumors. Kind of experiment: Spontaneous lung metastasis in 4T1-luc2 breast tumor model. To be noted: ER-886046 150 mg/kg po daily days 9-27 + single radiation 9 Gy; day 27. On the procedure:
FIG. 6A to FIG. 6B. Anti-pulmonary metastasis activity of ER-886046/radiation in breast 4T1 tumor model. 4T1-luc2 cells were subcutaneously (sc) inoculated into the Ba1B/c mice. When the average size of tumors reached 100 mm^3, the tumors were radiated with a dose of 9 Gy once with or without daily oral administration of ER-886046 at dose of 150 mg/kg. Panel shown in FIG. 6A) At the end of study on day 27, lung metastasis of the animals was analyzed and quantified by luciferase expression. Panel shown in FIG. 6B) Representative IVIS images of each group are shown. Student t-test was used for statistic analysis.
In case of tumor rechallenge of tumor-free mice after treatments, CT26 cells and 4T1 cells were individually sc injected into the different flanks of the same mouse, and the growth of each tumor was measured and graphed as described above. […] At the end of study on day 27, the mice in all treatment groups were intranasally administered luciferin and the lungs were resected and analysed for luciferase expression using IVIS instrument. Quantification of the luciferase activity in the lungs was achieved by software Living Image.
Anti-spontaneous metastatic effect of ER-886046 and radiation combination therapy. […] At day 27, the mice in all treatment groups were intranasally administered luciferin and the lungs were resected and analyzed for luciferase expression.

Experiment [1] relates to immune cells in the CT26 tumors. In words: Flow cytometry of intratumoral immune cells in CT26 tumors. On the procedure:
FIG. 7A to FIG. 7B. Radiation and ER-886046 worked synergistically to modify the intratumoral immunity. Panel shown in FIG. 7A) Quantification of myeloid cells (CD11b^+) and cytotoxic T cells (CD8^+) in the CT26 tumors that received 9 Gy alone, 9 Gy+ER-886046, or vehicle alone. Panel shown in FIG. 7B) Quantification of myeloid-derived suppressor cells (MDSC cells, CD11b^+Gr1^+) in the tumors. Radiation was given once to the tumors on the day of randomization, while ER-886046 was administered po daily administrated at 150 mg/kg to the animals for 7 consecutive days after randomization. The tumors were analyzed by flow cytometry one day after the last dose of ER-886046. **, p<0.01; ns, not significant; student t-test.
Flow cytometry; CT26 tumors with or without treatments received were surgically resected and minced by physical pressure, followed by digestion with collagenase I at 1 mg/ml at 37° C. for 1 h. The single cell mixtures from the digestion were labelled by incubation with fluorescent antibodies against immune cell antigens and analysed by flow cytometry. Cell population calculation was performed by software FlowJo 7.6.
(In flow cytometry, cells or beads pass a laser one at a time.)

The next experiment has as its system PAN02 pancreatic tumors. Kind of experiment: PAN02 pancreatic tumor model, ER-886046 with gemcitabine and radiation. The procedure: FIG. 10. […] Antitumor activity of gemcitabine plus local radiation (RT) administered to PAN02 pancreatic tumors in C57BL/6 mice with or without ER-886046. Gemcitabine and RT dosing: a single 40 mg/kg dose of gemcitabine and a single 6 Gy dose of RT, was administered on day 27 post tumor cell injection. ER-8806046 was administered daily in an amount of 150 mg/kg from day 27 post tumor cell injection until the end of the study.
FIG. 11A to FIG. 11B. Additional experiments with combination therapy of ER-886046 and anti-metabolite chemotherapy with radiation compared to anti-metabolite chemotherapy with radiation alone. Panel shown in FIG. 11A) Gemcitabine and RT dosing: a single 40 mg/kg dose of gemcitabine and a single 6 Gy dose of RT, was administered on day 19 post tumor cell injection. ER-8806046 was administered daily in an amount of 150 mg/kg from day 19 post tumor cell injection until the end of the study. Panel shown in FIG. 11B) Gemcitabine and RT dosing: a single 40 mg/kg dose of gemcitabine and a single 6 Gy dose of RT, was administered on day 12 post tumor cell injection. ER-8806046 was administered daily in an amount of 150 mg/kg from day 12 post tumor cell injection until the end of the study. Average tumor sizes of mouse pancreatic PAN02 tumor-bearing mice that received vehicles, ER-886046, gemcitabine (gem) plus radiation (RT), ER-886046 plus RT, or ER-886046 plus gemcitabine and RT at indicated dosages and schedules. A and B represent each independent study. N=8-10 per group. NS, not significant; *, p<0.05; **, p<0.01; ***, p<0.001; and ****, p<0.0001, two-way ANOVA test.
Animal studies; In vitro cultured cancer cells were harvested and suspended in 100 μl of cold HBSS buffer at cell concentrations of 1.0×10^6 cells/ml (CT-26 cells) or of 1.0×10^7 cells/ml (PAN02 cells) and subcutaneously (sc) injected into the mice using a 26 g syringe on day 0. At the dates as indicated in the figures, the mice were randomized based on the tumor size followed by treatments with local radiation alone, gemcitabine alone (intravenous administration), ER-886046 alone (oral administration), or combinations of these treatments. […] The tumor sizes were measured twice a week by a digital caliber (Mitutoyo Corp), and the volume was calculated using the formula (1×w^2)/2=mm^3, where 1 and w refer to the larger and smaller perpendicular dimensions collected at each measurement. Graphs of group tumor sizes (mean±SEM) versus time were plotted using software GraphPad Prism 6 (Lake Forest, Calif.). Two way ANOVA was used for statistical calculation among the groups. N=8-10 in each treatment group.

Regarding `C[C@H](NC(=O)c1c(C(F)F)nn(C)c1Oc1cccc(C(F)(F)F)c1)c1ccc(C(=O)O)cc1` [ER-886046], the “luciferase expression in lungs (lung metastasis)” value in the experiment on 4T1-luc2 tumors is on record as “significant reduction”. In addition, the “ratio of Gr1+ cells among CD45+CD11b+ cells (MDSC)” value in experiment [1] (ER-886046 150 mg/kg po daily 7 days + 9 Gy radiation, vs vehicle or radiation alone) is “reduced the ratio of Gr1^+ cells among CD45^+CD11b^+ cells”. The “tumor infiltration frequency of CD8+ T cells and CD11b+ myeloid cells” value in experiment [1] (ER-886046 150 mg/kg po daily 7 days added to 9 Gy radiation, vs radiation alone) was “no additional significant effect”. Moreover, in the experiment on PAN02 pancreatic tumors (ER-886046 150 mg/kg daily + RT 6 Gy, first study (FIG. 10)), the “anti-tumor activity, ER-886046 plus RT vs triple combination” value was “no significant difference in the anti-tumor activity”. Besides, in the experiment with PAN02 pancreatic tumors (ER-886046 150 mg/kg daily from day 27 + gemcitabine 40 mg/kg + RT 6 Gy day 27, first study (FIG. 10)), the “anti-tumor activity, triple combination” value was “best anti-tumor activity among the treatment groups”. Further, in the experiment on PAN02 pancreatic tumors (ER-886046 150 mg/kg daily from day 27, first study (FIG. 10)), the “anti-tumor activity, ER-886046 alone” value is “more efficacious than RT plus gemcitabine”. Further, the tumor-bearing animals cured result with PAN02 pancreatic tumors (triple combination ER-886046 + gemcitabine + RT, day 36 after tumor cell inoculation (FIG. 11B)) is “five of eight”.
